These results are taken from patent publication US6472418B1, “Non-peptide NK1 receptors antagonists” (Warner-Lambert Company, priority 1998, dated 2002).

What is called IC50 is the concentration at which inhibition is half-maximal.

Bounds are passed on as bounds.

The target in the experiment is T1, Human NK1 Receptor (Homo sapiens, UniProt P25103).
T1 construct: endogenous in cells; host or cells: Human lymphoma IM9 cells (whole cells)
T1 sequence (P25103 whole entry): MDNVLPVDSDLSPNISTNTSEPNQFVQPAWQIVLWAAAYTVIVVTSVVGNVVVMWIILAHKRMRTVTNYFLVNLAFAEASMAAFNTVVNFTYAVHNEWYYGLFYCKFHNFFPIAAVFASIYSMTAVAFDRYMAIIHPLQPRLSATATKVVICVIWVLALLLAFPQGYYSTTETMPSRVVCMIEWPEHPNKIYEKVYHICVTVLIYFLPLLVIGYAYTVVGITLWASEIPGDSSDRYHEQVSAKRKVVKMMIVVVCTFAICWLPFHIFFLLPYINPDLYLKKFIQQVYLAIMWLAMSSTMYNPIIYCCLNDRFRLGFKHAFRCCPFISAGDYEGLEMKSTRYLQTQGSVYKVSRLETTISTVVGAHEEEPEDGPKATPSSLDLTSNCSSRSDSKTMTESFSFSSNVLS
In words: In Vitro Human NK1 Receptor Binding Assay ([125I]Bolton-Hunter substance P displacement, IM9 cells). The conditions noted are these: human NK1 receptor, IM9 cells, [125I]Bolton-Hunter substance P; read-out: IC50 (nM) hNK1. The essentials:
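Radioligand displacement on whole IM9 human lymphoma cells (2.5×10^6 cells/mL) using [125I]Bolton-Hunter substance P (0.05-0.1 nM), 50 min at 21° C in Tris pH 7.4/MnCl2 buffer with protease inhibitors. Non-specific binding defined by […] [Sar9, Met(O2)11] substance P. Filtration, gamma counting, iterative curve fitting.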
With `CC(Cc1c[nH]c2ccccc12)(NCc1cc2ccccc2o1)C(=O)NCC1CCCO1` (stereo not drawn) [compound 138, 2-[(Benzofuran-2-ylmethyl)-amino]-3-(1H-indol-3-yl)-2-methyl-N-(tetrahydro-furan-2-ylmethyl)-propionamide], the IC50 stood at 4870 nM. Next, `CC(Cc1c[nH]c2ccccc12)(NCc1cc2ccccc2o1)C(=O)NCc1cc(F)ccc1F` (stereo not drawn) [compound 139, 2-[(Benzofuran-2-ylmethyl)-amino]-N-(2,5-difluoro-benzyl)-3-(1H-indol-3-yl)-2-methyl-propionamide]: 99 nM; `CC(CNC(=O)C(C)(Cc1c[nH]c2ccccc12)NCc1cc2ccccc2o1)c1ccccc1` (stereo not drawn) [compound 140, 2-[(Benzofuran-2-ylmethyl)-amino]-3-(1H-indol-3-yl)-2-methyl-N-(2-phenyl-propyl)-propionamide]: > 10000 nM.

With `CC(Cc1c[nH]c2ccccc12)(NCc1cc2ccccc2o1)C(=O)NCc1ccc(N)c2ccccc12` (stereo not drawn) [compound 141, N-(4-Amino-naphthalen-1-ylmethyl)-2-[(benzofuran-2-ylmethyl)-amino]-3-(1H-indol-3-yl)-2-methyl-propionamide], the IC50 is 2340 nM. Next, `COc1cccc(CNC(=O)C(C)(Cc2c[nH]c3ccccc23)NCc2cc3ccccc3o2)c1OC` (stereo not drawn) [compound 142, 2-[(Benzofuran-2-ylmethyl)-amino]-N-(2,3-dimethoxy-benzyl)-3-(1H-indol-3-yl)-2-methyl-propionamide]: 1960 nM; `CC(Cc1c[nH]c2ccccc12)(NCc1cc2ccccc2o1)C(=O)NCCc1ccc(O)cc1` (stereo not drawn) [compound 143, 2-[(Benzofuran-2-ylmethyl)-amino]-N-[2-(4-hydroxy-phenyl)-ethyl]-3-(1H-indol-3-yl)-2-methyl-propionamide]: > 10000 nM.

As to `CC(Cc1c[nH]c2ccccc12)(NCc1cc2ccccc2o1)C(=O)NC1(CO)CCCC1` (stereo not drawn) [compound 144, 2-[(Benzofuran-2-ylmethyl)-amino]-N-(1-hydroxymethyl-cyclopentyl)-3-(1H-indol-3-yl)-2-methyl-propionamide], the IC50 is > 10000 nM. Next, `CC(Cc1c[nH]c2ccccc12)(NCc1cc2ccccc2o1)C(=O)NCCc1cccnc1` (stereo not drawn) [compound 145, 2-[(Benzofuran-2-ylmethyl)-amino]-3-(1H-indol-3-yl)-2-methyl-N-(2-pyridin-3-yl-ethyl)-propionamide]: 1300 nM; `CC(NC(=O)C(C)(Cc1c[nH]c2ccccc12)NCc1cc2ccccc2o1)C1=CCCO1` (stereo not drawn) [compound 146, 2-[(Benzofuran-2-ylmethyl)-amino]-N-[1-(4,5-dihydro-furan-2-yl)-ethyl]-3-(1H-indol-3-yl)-2-methyl-propionamide]: 3590 nM; `CC(Cc1c[nH]c2ccccc12)(NCc1cc2ccccc2o1)C(=O)NCCN1CCNCC1` (stereo not drawn) [compound 147, 2-[(Benzofuran-2-ylmethyl)-amino]-3-(1H-indol-3-yl)-2-methyl-N-(2-piperazin-1-yl-ethyl)-propionamide]: > 10000 nM. Next, `CC(Cc1c[nH]c2ccccc12)(NCc1cc2ccccc2o1)C(=O)NC1CCCc2ccccc21` (stereo not drawn) [compound 148, 2-[(Benzofuran-2-ylmethyl)-amino]-3-(1H-indol-3-yl)-2-methyl-N-(1,2,3,4-tetrahydro-naphthalen-1-yl)-propionamide]: > 10000 nM; `COC1C=CC(CNC(=O)C(C)(Cc2c[nH]c3ccccc23)NCc2cc3ccccc3o2)(OC)O1` (stereo not drawn) [compound 149, 2-[(Benzofuran-2-ylmethyl)-amino]-N-(2,5-dimethoxy-2,5-dihydro-furan-2-ylmethyl)-3-(1H-indol-3-yl)-2-methyl-propionamide]: > 10000 nM; `CC(CNC(=O)C(C)(Cc1c[nH]c2ccccc12)NCc1cc2ccccc2o1)c1ccccc1` (stereo not drawn) [compound 150, 2-[(Benzofuran-2-ylmethyl)-amino]-3-(1H-indol-3-yl)-2-methyl-N-(2-phenyl-propyl)-propionamide]: 262 nM. Next, `CC(Cc1c[nH]c2ccccc12)(NCc1cc2ccccc2o1)C(=O)NCc1cnc2ccccc2c1` (stereo not drawn) [compound 151, 2-[(Benzofuran-2-ylmethyl)-amino]-3-(1H-indol-3-yl)-2-methyl-N-quinolin-3-ylmethyl-propionamide]: 1210 nM; `CC(Cc1c[nH]c2ccccc12)(NCc1cc2ccccc2o1)C(=O)NCC(CC(=O)O)c1ccccc1` (stereo not drawn) [compound 152, 4-[2-[(Benzofuran-2-ylmethyl)-amino]-3-(1H-indol-3-yl)-2-methyl-propionylamino]-3-phenyl-butyric acid]: > 10000 nM. Regarding `COc1cc(C(O)CNC(=O)C(C)(Cc2c[nH]c3ccccc23)NCc2cc3ccccc3o2)ccc1O` (stereo not drawn) [compound 153, 2-[(Benzofuran-2-ylmethyl)-amino]-N-[2-hydroxy-2-(4-hydroxy-3-methoxy-phenyl)-ethyl]-3-(1H-indol-3-yl)-2-methyl-propionamide], the IC50 was found to be 3550 nM. To `CC(Cc1c[nH]c2ccccc12)(NCc1cc2ccccc2o1)C(=O)NCC1CCNC1` (stereo not drawn) [compound 154, 2-[(Benzofuran-2-ylmethyl)-amino]-3-(1H-indol-3-yl)-2-methyl-N-pyrrolidin-3-ylmethyl-propionamide] belongs > 10000 nM; to `CC(Cc1c[nH]c2ccccc12)(NCc1cc2ccccc2o1)C(=O)NCCN1CCCC1` (stereo not drawn) [compound 155, 2-[(Benzofuran-2-ylmethyl)-amino]-3-(1H-indol-3-yl)-2-methyl-N-(2-pyrrolidin-1-yl-ethyl)-propionamide], > 10000 nM; to `CC(Cc1c[nH]c2ccccc12)(NCc1cc2ccccc2o1)C(=O)NCC1CCNCC1` (stereo not drawn) [compound 156, 2-[(Benzofuran-2-ylmethyl)-amino]-3-(1H-indol-3-yl)-2-methyl-N-piperidin-4-ylmethyl-propionamide], > 10000 nM. In the case of `Cc1ccccc1CNC(=O)C(C)(Cc1c[nH]c2ccccc12)NCc1cc2ccccc2o1` (stereo not drawn) [compound 157, 2-[(Benzofuran-2-ylmethyl)-amino]-3-(1H-indol-3-yl)-2-methyl-N-(2-methyl-benzyl)-propionamide], the IC50 amounted to 455 nM. To `CC(Cc1c[nH]c2ccccc12)(NCc1cc2ccccc2o1)C(=O)NC1CCc2ccccc21` (stereo not drawn) [compound 158, 2-[(Benzofuran-2-ylmethyl)-amino]-N-indan-1-yl-3-(1H-indol-3-yl)-2-methyl-propionamide] belongs 2570 nM; to `CC(Cc1c[nH]c2ccccc12)(NCc1cc2ccccc2o1)C(=O)NCC1(c2cccnc2)CCC1` (stereo not drawn) [compound 159, 2-[(Benzofuran-2-ylmethyl)-amino]-3-(1H-indol-3-yl)-2-methyl-N-(1-pyridin-3-yl-cyclobutylmethyl)-propionamide], 3760 nM; to `CC(Cc1c[nH]c2ccccc12)(NCc1cc2ccccc2o1)C(=O)NC1(c2cccs2)CCCCC1` (stereo not drawn) [compound 160, 2-[(Benzofuran-2-ylmethyl)-amino]-3-(1H-indol-3-yl)-2-methyl-N-(1-thiophen-2-yl-cyclohexyl)-propionamide], > 10000 nM. To `CC(Cc1c[nH]c2ccccc12)(NCc1cc2ccccc2o1)C(=O)NCCc1ccc(O)c(O)c1` (stereo not drawn) [compound 161, 2-[(Benzofuran-2-ylmethyl)-amino]-N-[2-(3,4-dihydroxy-phenyl)-ethyl]-3-(1H-indol-3-yl)-2-methyl-propionamide] belongs > 10000 nM; to `CCC(NC(=O)C(C)(Cc1c[nH]c2ccccc12)NCc1cc2ccccc2o1)c1ccccc1` (stereo not drawn) [compound 162, 2-[(Benzofuran-2-ylmethyl)-amino]-3-(1H-indol-3-yl)-2-methyl-N-(1-phenyl-propyl)-propionamide], 42 nM.

As for `CC(Cc1c[nH]c2ccccc12)(NCc1cc2ccccc2o1)C(=O)NCC(=O)c1ccccc1` (stereo not drawn) [compound 163, 2-[(Benzofuran-2-ylmethyl)-amino]-3-(1H-indol-3-yl)-2-methyl-N-(2-oxo-2-phenyl-ethyl)-propionamide], the IC50 is 166 nM.

Consider `CC(Cc1c[nH]c2ccccc12)(NCc1cc2ccccc2o1)C(=O)NCC1CC2CCC1C2` (stereo not drawn) [compound 165, 2-[(Benzofuran-2-ylmethyl)-amino]-N-bicyclo[2.2.1]hept-2-ylmethyl-3-(1H-indol-3-yl)-2-methyl-propionamide], for which the IC50 is > 10000 nM. To `CC(Cc1c[nH]c2ccccc12)(NCc1cc2ccccc2o1)C(=O)NCc1cccc(F)c1` (stereo not drawn) [compound 166, 2-[(Benzofuran-2-ylmethyl)-amino]-N-(3-fluoro-benzyl)-3-(1H-indol-3-yl)-2-methyl-propionamide] belongs 37 nM. Next, `CC(Cc1c[nH]c2ccccc12)(NCc1cc2ccccc2o1)C(=O)NCc1ccc(F)c(F)c1` (stereo not drawn) [compound 167, 2-[(Benzofuran-2-ylmethyl)-amino]-N-(3,4-difluoro-benzyl)-3-(1H-indol-3-yl)-2-methyl-propionamide]: 29 nM. In the case of `CC(Cc1c[nH]c2ccccc12)(NCc1cc2ccccc2o1)C(=O)NCc1ccc(F)cc1Cl` (stereo not drawn) [compound 168], the IC50 was 230 nM.

Consider `Cc1cc(C)c(CNC(=O)C(C)(Cc2c[nH]c3ccccc23)NCc2cc3ccccc3o2)cn1` (stereo not drawn) [compound 169, 2-[(Benzofuran-2-ylmethyl)-amino]-N-(4,6-dimethyl-pyridin-3-ylmethyl)-3-(1H-indol-3-yl)-2-methyl-propionamide], for which the IC50 worked out at 6020 nM. As for `CC(Cc1c[nH]c2ccccc12)(NCc1cc2ccccc2o1)C(=O)NCc1cc(Br)ccc1O` (stereo not drawn) [compound 170, 2-[(Benzofuran-2-ylmethyl)-amino]-N-(5-bromo-2-hydroxy-benzyl)-3-(1H-indol-3-yl)-2-methyl-propionamide], the IC50 was 2380 nM. Consider `CC(Cc1c[nH]c2ccccc12)(NCc1cc2ccccc2o1)C(=O)NCc1ccc(C(=O)O)cc1` (stereo not drawn) [compound 171, 4-{[2-[(Benzofuran-2-ylmethyl)-amino]-3-(1H-indol-3-yl)-2-methyl-propionylamino]-methyl}-benzoic acid], for which the IC50 is > 10000 nM.
